Legend:
C32 (Melanoma) [1] = assay: Bliss excess, mean over the matrix (fraction); higher = more synergy
Summary of the method: (§1)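 Cell lines grown in DMEM/F12 or RPMI with 10% FBS were plated in 1536-well plates and held 24 hours at 37°C, 5% CO2 before 72 hours of exposure to two-drug dose matrices, with DMSO typically at 0.2%. CellTiter-Glo 2.0 luminescence gave viability, which was converted to inhibition. Vehicle wells were set to 0 and blank wells to 1. Combination Emax is the second-highest inhibition in the matrix, and Bliss excess is the observed combination effect minus the expected EA + EB − EA·EB, where EA and EB are the single-agent effects.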

[2] = system: GRANTA-519 (B-Cell Non-Hodgkin's Lymphoma); assay: as above
Summary of the method: as §1

[3] = system: JURL-MK1 (Chronic Myelogenous Leukemia); assay: as above
Summary of the method: as §1

[4] = system: MDA-MB-175-VII (Breast Carcinoma); assay: as above
Summary of the method: as §1

MG-63 (Osteosarcoma) [5] = assay: as above
Summary of the method: as §1

[6] = system: NCI-H1648 (Lung Adenocarcinoma); assay: as above
Summary of the method: as §1

[7] = system: NCI-H2009 (Lung Adenocarcinoma); assay: as above
Summary of the method: as §1

[8] = system: SW1463 (Colorectal Carcinoma); assay: as above
Summary of the method: as §1

A375 (Melanoma) = assay: combination Emax (second highest fraction inhibited in the dose matrix, 72 h); higher = more inhibition; extreme values may be limits of the assay
Summary of the method: as §1

C32 (Melanoma) [9] = assay: as above
Summary of the method: as §1

[10] = system: CAL-85-1 (Breast Carcinoma); assay: as above
Summary of the method: as §1

MG-63 (Osteosarcoma) [11] = assay: as above
Summary of the method: as §1

[12] = system: NCI-H1435 (Non-Small Cell Lung Carcinoma); assay: as above
Summary of the method: as §1

[13] = system: NCI-H2023 (Non-Small Cell Lung Carcinoma); assay: as above
Summary of the method: as §1

NCI-H2452 (Mesothelioma) = assay: as above
Summary of the method: as §1

[14] = system: RPMI-8402 (T-Lymphoblastic Leukemia); assay: as above
Summary of the method: as §1

[15] = system: SBC-3 (Small Cell Lung Carcinoma); assay: as above
Summary of the method: as §1

[16] = system: SBC-5 (Small Cell Lung Carcinoma); assay: as above
Summary of the method: as §1

[17] = system: SCC90 (Head and Neck Carcinoma); assay: as above
Summary of the method: as §1

SK-MEL-24 (Melanoma) = assay: as above
Summary of the method: as §1
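For Bliss excess, mean over the matrix in this document: after 72 h of two-drug dosing.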

| SMILES | Bliss excess (C32 (Melanoma) [1]) | Bliss excess [2] | Bliss excess [3] | Bliss excess [4] | Bliss excess (MG-63 (Osteosarcoma) [5]) | Bliss excess [6] | Bliss excess [7] | Bliss excess [8] | combination Emax (A375 (Melanoma)) | combination Emax (C32 (Melanoma) [9]) | combination Emax [10] | combination Emax (MG-63 (Osteosarcoma) [11]) | combination Emax [12] | combination Emax [13] | combination Emax (NCI-H2452 (Mesothelioma)) | combination Emax [14] | combination Emax [15] | combination Emax [16] | combination Emax [17] | combination Emax (SK-MEL-24 (Melanoma)) |
| --- | --- | --- | --- | --- | --- | --- | --- | --- | --- | --- | --- | --- | --- | --- | --- | --- | --- | --- | --- | --- |
| COc1cc2ncnc(Nc3ccc(F)c(Cl)c3)c2cc1OCCCN1CCOCC1 [Gefitinib] + CC(C)n1c(=O)n(C)c2cnc3cc(F)c(-c4ccc(OCCCN5CCCCC5)nc4)cc3c21 [AZD1390] (first compound max 10 µM, 7x7, partner max 0.3 µM) | -0.0368 | -0.0689 | -0.0586 | -0.0191 | -0.0772 | -0.0521 | -0.0519 | 0.0109 | 0.0854 | 0.114 | 0.466 | 0.202 | 0.114 | 0.151 | 0.306 | 0.56 | 0.107 | 0.0706 | 0.699 | 0.246 |
| COc1cc2c(cc1OCCCCCOc1cc3c(cc1OC)C(=O)N1C=C(C)C[C@H]1C=N3)N=C[C@@H]1CC(C)=CN1C2=O [SG3199] + O=C(c1cc(Cc2n[nH]c(=O)c3ccccc23)ccc1F)N1CCN(C(=O)C2CC2)CC1 [Olaparib] (first compound max 0.001 µM, 7x7, partner max 10 µM) | -0.0373 | -0.0226 | -0.0007 | -0.0489 | -0.0041 | -0.0282 | -0.0297 | -0.0393 | 0.209 | 0.0494 | 0.188 | 0.198 | 0.107 | 0.173 | 0.155 | 0.435 | 0.478 | 0.0814 | 0.173 | 0.129 |
| CN(CCO)CC[C@H](CSc1ccccc1)Nc1ccc(S(=O)(=O)NC(=O)c2ccc(N3CCC([C@@H](O)c4ccccc4-c4ccc(Cl)cc4)CC3)cc2)cc1S(=O)(=O)C(F)(F)F [AZD4320] + Nc1ccn([C@@H]2O[C@H](CO)[C@@H](O)C2(F)F)c(=O)n1 [Gemcitabine] (first compound max 1 µM, 7x7, partner max 0.3 µM) | 0.0027 |  |  | 0.125 | 0.0293 | -0.0274 | -0.013 | -0.0192 | 0.996 | 0.805 | 0.702 | 0.973 | 0.823 | 0.884 | 0.355 | 1 | 1 |  |  | 0.901 |
| CN(CCO)CC[C@H](CSc1ccccc1)Nc1ccc(S(=O)(=O)NC(=O)c2ccc(N3CCC([C@@H](O)c4ccccc4-c4ccc(Cl)cc4)CC3)cc2)cc1S(=O)(=O)C(F)(F)F [AZD4320] + C[C@@H](Nc1cc(F)cc(F)c1)c1cc(C(=O)N(C)C)cc2c(=O)cc(N3CCOCC3)oc12 [AZD8186] (first compound max 1 µM, 7x7, partner max 3 µM) | -0.0046 | 0.0128 | 0.0149 | 0.0271 | -0.0149 | 0.0323 | -0.0035 | -0.0706 | 0.519 | 0.681 | 0.668 | 0.375 | 0.966 | 0.351 | 0.364 | 0.994 | 0.979 | 0.41 | 0.557 | 0.772 |
| N#Cc1cnc(Nc2cc(NC[C@H]3CNCCO3)c(C(F)(F)F)cn2)cn1 [SRA737] + Nc1ccn([C@@H]2O[C@H](CO)[C@@H](O)C2(F)F)c(=O)n1 [Gemcitabine] (first compound max 10 µM, 7x7, partner max 0.3 µM) | -0.0986 |  |  | -0.0041 | 0.124 | 0.0912 | 0.125 | 0.0633 | 0.972 | 0.724 | 0.743 | 0.988 | 0.411 | 0.708 | 0.737 | 1 | 0.97 |  |  | 0.814 |
| N#Cc1cnc(Nc2cc(NC[C@H]3CNCCO3)c(C(F)(F)F)cn2)cn1 [SRA737] + O=c1[nH]cc(F)c(=O)[nH]1 [5-Fluorouracil] (first compound max 10 µM, 7x7, partner max 20 µM) | -0.0343 |  |  | -0.0189 | 0.0106 | -0.0515 | 0.0125 | -0.0006 | 0.226 | 0.15 | 0.555 | 0.492 | 0.164 | 0.689 | 0.513 | 1 | 0.66 |  |  | 0.314 |
| N#Cc1cnc(Nc2cc(NC[C@H]3CNCCO3)c(C(F)(F)F)cn2)cn1 [SRA737] + C=CCn1c(=O)c2cnc(Nc3ccc(N4CCN(C)CC4)cc3)nc2n1-c1cccc(C(C)(C)O)n1 [AZD1775] (first compound max 10 µM, partner max 1 µM) | 0.0397 |  |  | -0.0073 | 0.0974 | -0.0116 | -0.011 | 0.0027 | 0.615 | 0.581 | 0.476 | 0.867 | 0.267 | 0.594 | 0.722 | 1 | 0.86 |  |  | 0.46 |
| Cc1cc2ncnn2cc1Nc1ncc2c(n1)n(C1CCOCC1)c(=O)n2C [AZD7648] + O=C(c1cc(Cc2n[nH]c(=O)c3ccccc23)ccc1F)N1CCN(C(=O)C2CC2)CC1 [Olaparib] (first compound max 10 µM, 7x7, partner max 10 µM) | -0.0375 | -0.0416 | -0.0253 | -0.0525 | 0.0014 | -0.0549 | -0.0372 | -0.0417 | 0.234 | 0.0555 | 0.337 | 0.53 | 0.149 | 0.38 | 0.266 | 0.561 | 0.451 | 0.218 | 0.188 | 0.211 |
| CN(CCO)CC[C@H](CSc1ccccc1)Nc1ccc(S(=O)(=O)NC(=O)c2ccc(N3CCC([C@@H](O)c4ccccc4-c4ccc(Cl)cc4)CC3)cc2)cc1S(=O)(=O)C(F)(F)F [AZD4320] + CCN(CCO)CCCOc1ccc2c(Nc3cc(CC(=O)Nc4cccc(F)c4)[nH]n3)ncnc2c1 [AZD2811] (first compound max 1 µM, 7x7, partner max 1 µM) | 0.114 | 0.191 | 0.0346 | 0.0289 | 0.0838 | 0.0065 | -0.0461 | -0.0238 | 0.506 | 0.643 | 0.397 | 0.86 | 0.699 |  | 0.364 | 0.999 | 0.523 | 0.3 | 0.715 | 0.226 |
| C[C@@H](c1ccc2nccn2c1)n1nnc2ncc(-c3cnn(C)c3)nc21 [Savolitinib] + CC1(C)CCC(CN2CCN(c3ccc(C(=O)NS(=O)(=O)c4ccc(NCC5CCOCC5)c([N+](=O)[O-])c4)c(Oc4cnc5[nH]ccc5c4)c3)CC2)=C(c2ccc(Cl)cc2)C1 [Venetoclax] (first compound max 1 µM, 7x7, partner max 1 µM) | -0.0338 | -0.0822 | -0.0679 | -0.013 | -0.0157 | -0.0253 | -0.041 | -0.0339 | 0.142 | 0.171 | 0.146 | 0.238 | 0.177 | 0.261 | 0.174 | 0.183 | 0.118 | 0.33 | 0.381 | 0.154 |
| CN(CCO)CC[C@H](CSc1ccccc1)Nc1ccc(S(=O)(=O)NC(=O)c2ccc(N3CCC([C@@H](O)c4ccccc4-c4ccc(Cl)cc4)CC3)cc2)cc1S(=O)(=O)C(F)(F)F [AZD4320] + Cc1cc2ncnn2cc1Nc1ncc2c(n1)n(C1CCOCC1)c(=O)n2C [AZD7648] (first compound max 1 µM, 7x7, partner max 10 µM) | -0.0275 | 0.0049 | -0.0287 | -0.0145 | -0.0463 | -0.0264 | -0.0437 | -0.0232 | 0.134 | 0.211 | 0.337 | 0.179 | 0.752 | 0.318 | 0.386 | 0.929 | 0.276 | 0.166 | 0.448 | 0.252 |
| C[C@@H](c1ccc2nccn2c1)n1nnc2ncc(-c3cnn(C)c3)nc21 [Savolitinib] + CN(CC[C@H](CSC1=CC=CC=C1)NC2=C(C=C(C=C2)S(=O)(=O)NC(=O)C3=CC=C(C=C3)N4CCC(CC4)[C@H](C5=CC=CC=C5C6=CC=C(C=C6)Cl)O)S(=O)(=O)C(F)(F)F)CCO [AZD4320] (first compound max 1 µM, 7x7, partner max 1 µM) | -0.0103 | -0.044 | -0.0811 |  |  |  |  |  | 0.202 | 0.377 |  |  |  |  |  |  |  | 0.326 | 0.502 |  |
| Cc1cc2ncnn2cc1Nc1ncc2c(n1)n(C1CCOCC1)c(=O)n2C [AZD7648] + COc1cc([C@@H]2c3cc4c(cc3[C@@H](O[C@@H]3O[C@@H]5CO[C@@H](C)O[C@H]5[C@H](O)[C@H]3O)[C@H]3COC(=O)[C@H]23)OCO4)cc(OC)c1O [Etoposide] (first compound max 10 µM, 7x7, partner max 10 µM) | 0.0402 |  |  | 0.0478 | 0.0878 | -0.0577 | 0.116 | -0.0081 | 0.901 | 0.526 | 0.629 | 0.874 | 0.286 | 0.621 | 0.355 | 1 | 0.94 |  |  | 0.677 |
| N#Cc1cnc(Nc2cc(NC[C@H]3CNCCO3)c(C(F)(F)F)cn2)cn1 [SRA737] + CCc1c2c(nc3ccc(O)cc13)-c1cc3c(c(=O)n1C2)COC(=O)[C@]3(O)CC [SN-38] (first compound max 10 µM, 7x7, partner max 0.3 µM) | -0.0762 |  |  | -0.0418 | -0.0251 |  | 0.0451 | 0.0621 | 0.923 | 0.626 | 0.746 | 0.953 | 0.46 | 0.747 | 0.787 | 1 | 0.935 |  |  | 0.73 |

Source: the supplement of paper PMC11061612
